Measured values: ChEMBL document CHEMBL6127154, “Pursuing Polypharmacology: Benzothiopyranoindoles as G-Quadruplex Stabilizers and Topoisomerase I Inhibitors for Effective Anticancer Strategies” (ACS Med Chem Lett, 2024)
The source made the active and inactive calls. The rule behind the calls is not given here.

How the values were obtained:
RPMI-8226 = assay: Antiproliferative activity against human RPMI-8226 cells assessed as growth inhibition incubated for 48 hrs by SRB assay; assay type: functional
NCI-H226 = assay: Antiproliferative activity against human NCI-H226 cells assessed as growth inhibition incubated for 48 hrs by SRB assay; assay type: functional
Quadruplex DNA [1] = assay: Stabilization of human telomeric 23 hybrid G4 quadruplex DNA incubated for 10 mins by circular dichroism spectroscopic analysis; assay type: nucleic-acid assay
SNB-19 = assay: Antiproliferative activity against human SNB-19 cells assessed as growth inhibition incubated for 48 hrs by SRB assay; assay type: functional
MOLT-4 = assay: Antiproliferative activity against human MOLT-4 cells assessed as growth inhibition incubated for 48 hrs by SRB assay; assay type: functional
OVCAR-3 = assay: Antiproliferative activity against human OVCAR-3 cells assessed as growth inhibition incubated for 48 hrs by SRB assay; assay type: functional
Quadruplex DNA [2] = assay: Thermal stabilization of human c-Kit2 G4 quadruplex DNA assessed as change in melting temperature (deltaT1/2) incubated for 10 mins by circular dichroism spectroscopic analysis (reference value: 62.4 +/-0.1 degreeC); assay type: nucleic-acid assay
LOX IMVI = assay: Antiproliferative activity against human LOX IMVI cells assessed as growth inhibition incubated for 48 hrs by SRB assay; assay type: functional
UO-31 = assay: Antiproliferative activity against human UO-31 cells assessed as growth inhibition incubated for 48 hrs by SRB assay; assay type: functional
NCI-H23 = assay: Antiproliferative activity against human NCI-H23 cells assessed as growth inhibition incubated for 48 hrs by SRB assay; assay type: functional
OVCAR-5 = assay: Antiproliferative activity against human OVCAR-5 cells assessed as growth inhibition incubated for 48 hrs by SRB assay; assay type: functional
MDA-MB-435 = assay: Antiproliferative activity against human MDA-MB-435 cells assessed as growth inhibition incubated for 48 hrs by SRB assay; assay type: functional
SK-OV-3 = assay: Antiproliferative activity against human SK-OV-3 cells assessed as growth inhibition incubated for 48 hrs by SRB assay; assay type: functional
UACC-62 = assay: Antiproliferative activity against human UACC-62 cells assessed as growth inhibition incubated for 48 hrs by SRB assay; assay type: functional
DU-145 = assay: Antiproliferative activity against human DU-145 cells assessed as growth inhibition incubated for 48 hrs by SRB assay; assay type: functional
786-0 = assay: Antiproliferative activity against human 786-0 cells assessed as growth inhibition incubated for 48 hrs by SRB assay; assay type: functional
HCT-15 = assay: Antiproliferative activity against human HCT-15 cells assessed as growth inhibition incubated for 48 hrs by SRB assay; assay type: functional
HOP-62 = assay: Antiproliferative activity against human HOP-62 cells assessed as growth inhibition incubated for 48 hrs by SRB assay; assay type: functional
NCI/ADR-RES = assay: Antiproliferative activity against human NCI/ADR-RES cells assessed as growth inhibition incubated for 48 hrs by SRB assay; assay type: functional
[3] = target: DNA topoisomerase 1 (Homo sapiens) (UniProt P11387); assay: Inhibition of human Topoisomerase 1 assessed as relaxation of supercoiled plasmid pBR322 DNA at 2.5 uM incubated for 1 hr by ethidium bromide staining based agarose gel electrophoresis
Sequence of DNA topoisomerase 1 (Homo sapiens) (P11387 whole entry): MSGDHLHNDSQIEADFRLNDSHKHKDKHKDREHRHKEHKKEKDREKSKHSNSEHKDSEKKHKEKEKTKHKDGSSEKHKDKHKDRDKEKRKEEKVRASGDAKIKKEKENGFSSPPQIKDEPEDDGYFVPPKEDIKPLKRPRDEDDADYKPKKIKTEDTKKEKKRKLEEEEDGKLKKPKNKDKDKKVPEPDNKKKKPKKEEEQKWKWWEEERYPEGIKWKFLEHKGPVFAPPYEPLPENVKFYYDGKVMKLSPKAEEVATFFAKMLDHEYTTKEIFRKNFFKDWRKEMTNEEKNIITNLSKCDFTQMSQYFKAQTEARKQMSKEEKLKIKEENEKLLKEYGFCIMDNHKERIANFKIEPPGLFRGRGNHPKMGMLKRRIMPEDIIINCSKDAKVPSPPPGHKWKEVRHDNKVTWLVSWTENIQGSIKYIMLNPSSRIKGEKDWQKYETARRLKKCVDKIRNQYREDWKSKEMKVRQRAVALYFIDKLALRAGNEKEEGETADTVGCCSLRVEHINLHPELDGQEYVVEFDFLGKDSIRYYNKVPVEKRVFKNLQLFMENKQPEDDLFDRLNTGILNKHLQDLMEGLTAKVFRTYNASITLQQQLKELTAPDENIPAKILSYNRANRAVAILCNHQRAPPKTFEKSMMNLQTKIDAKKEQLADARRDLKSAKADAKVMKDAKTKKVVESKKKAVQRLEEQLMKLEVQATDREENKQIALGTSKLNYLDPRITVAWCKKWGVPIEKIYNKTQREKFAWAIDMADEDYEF

M14 = assay: Antiproliferative activity against human M14 cells assessed as growth inhibition incubated for 48 hrs by SRB assay; assay type: functional
HCT-116 [4] = assay: Antiproliferative activity against human HCT-116 cells assessed as growth inhibition incubated for 48 hrs by SRB assay; assay type: functional
Quadruplex DNA [5] = assay: Thermal stabilization of human Tel23-hy G4 quadruplex DNA assessed as change in melting temperature (deltaT1/2) incubated for 10 mins by circular dichroism spectroscopic analysis (reference value: 48 +/- 0.1 degreeC); assay type: nucleic-acid assay
MCF7 = assay: Antiproliferative activity against human MCF7 cells assessed as growth inhibition incubated for 48 hrs by SRB assay; assay type: functional
OVCAR-4 = assay: Antiproliferative activity against human OVCAR-4 cells assessed as growth inhibition incubated for 48 hrs by SRB assay; assay type: functional
SK-MEL-28 = assay: Antiproliferative activity against human SK-MEL-28 cells assessed as growth inhibition incubated for 48 hrs by SRB assay; assay type: functional
HCC 2998 = assay: Antiproliferative activity against human HCC 2998 cells assessed as growth inhibition incubated for 48 hrs by SRB assay; assay type: functional
CCRF-CEM = assay: Antiproliferative activity against human CCRF-CEM cells assessed as growth inhibition incubated for 48 hrs by SRB assay; assay type: functional
ACHN = assay: Antiproliferative activity against human ACHN cells assessed as growth inhibition incubated for 48 hrs by SRB assay; assay type: functional
HOP-92 = assay: Antiproliferative activity against human HOP-92 cells assessed as growth inhibition incubated for 48 hrs by SRB assay; assay type: functional
MDA-MB-468 = assay: Antiproliferative activity against human MDA-MB-468 cells assessed as growth inhibition incubated for 48 hrs by SRB assay; assay type: functional
KM12 = assay: Antiproliferative activity against human KM12 cells assessed as growth inhibition incubated for 48 hrs by SRB assay; assay type: functional
HCT-116 [6] = assay: Induction of DNA damage in human HCT-116 cells assessed as increase in 53BP1 foci positive cells incubated for 24 hrs by immunofluorescence staining based analysis; assay type: functional, cell-based
UACC-257 = assay: Antiproliferative activity against human UACC-257 cells assessed as growth inhibition incubated for 48 hrs by SRB assay; assay type: functional
SN12C = assay: Antiproliferative activity against human SN12C cells assessed as growth inhibition incubated for 48 hrs by SRB assay; assay type: functional
SF-295 = assay: Antiproliferative activity against human SF-295 cells assessed as growth inhibition incubated for 48 hrs by SRB assay; assay type: functional
Quadruplex DNA [7] = assay: Thermal stabilization of human Tel23-p G4 quadruplex DNA assessed as change in melting temperature (deltaT1/2) incubated for 10 mins by circular dichroism spectroscopic analysis (reference value: 68.2 +/- 0.1 degreeC); assay type: nucleic-acid assay
BT-549 = assay: Antiproliferative activity against human BT-549 cells assessed as growth inhibition incubated for 48 hrs by SRB assay; assay type: functional
A549 = assay: Antiproliferative activity against human A549 cells assessed as growth inhibition incubated for 48 hrs by SRB assay; assay type: functional
COLO 205 = assay: Antiproliferative activity against human COLO 205 cells assessed as growth inhibition incubated for 48 hrs by SRB assay; assay type: functional
Malme-3M = assay: Antiproliferative activity against human Malme-3M cells assessed as growth inhibition incubated for 48 hrs by SRB assay; assay type: functional
NCI-H460 = assay: Antiproliferative activity against human NCI-H460 cells assessed as growth inhibition incubated for 48 hrs by SRB assay; assay type: functional
EKVX = assay: Antiproliferative activity against human EKVX cells assessed as growth inhibition incubated for 48 hrs by SRB assay; assay type: functional
Quadruplex DNA [8] = assay: Stabilization of human telomeric 26 hybrid G4 quadruplex DNA incubated for 10 mins by circular dichroism spectroscopic analysis; assay type: nucleic-acid assay
U-251 = assay: Antiproliferative activity against human U-251 cells assessed as growth inhibition incubated for 48 hrs by SRB assay; assay type: functional
PC-3 = assay: Antiproliferative activity against human PC-3 cells assessed as growth inhibition incubated for 48 hrs by SRB assay; assay type: functional

Question: How did the GI (RPMI-8226) turn out when CCN(CC)CCn1c2ccc(OC)cc2c2sc3cc(OC)ccc3c(=O)c21 was run?
Answer: 1.47 µM

Question: What about the GI (NCI-H226) of the same compound?
Answer: 2.46 µM

Question: And the Activity (Quadruplex DNA [1])?
Answer: Active

Question: What about the GI (SNB-19) of the same compound?
Answer: 2.43 µM

Question: What about the GI (MOLT-4) of the same compound?
Answer: 0.383 µM

Question: What about the GI (OVCAR-3) of the same compound?
Answer: 2.12 µM

Question: What about the ΔTm (Quadruplex DNA [2]) of the same compound?
Answer: > 20 °C

Question: And the GI (LOX IMVI)?
Answer: 1.3 µM

Question: What about the GI (UO-31) of the same compound?
Answer: 1.35 µM

Question: And the GI (NCI-H23)?
Answer: 1.9 µM

Question: What about the GI (OVCAR-5) of the same compound?
Answer: 1.92 µM

Question: What about the GI (MDA-MB-435) of the same compound?
Answer: 1.73 µM

Question: What about the GI (SK-OV-3) of the same compound?
Answer: 3.07 µM

Question: What about the GI (UACC-62) of the same compound?
Answer: 1.8 µM

Question: And the GI (DU-145)?
Answer: 1.67 µM

Question: And the GI (786-0)?
Answer: 1.59 µM

Question: What about the GI (HCT-15) of the same compound?
Answer: 0.861 µM

Question: And the GI (HOP-62)?
Answer: 2.32 µM

Question: And the GI (NCI/ADR-RES)?
Answer: 1.24 µM

Question: And the inhibition [3]?
Answer: Active

Question: And the GI (M14)?
Answer: 1.64 µM

Question: What about the GI (HCT-116 [4]) of the same compound?
Answer: 0.659 µM

Question: What about the ΔTm (Quadruplex DNA [5]) of the same compound?
Answer: 11 °C

Question: What about the GI (MCF7) of the same compound?
Answer: 1.16 µM

Question: What about the GI (OVCAR-4) of the same compound?
Answer: 1.84 µM

Question: And the GI (SK-MEL-28)?
Answer: 1.7 µM

Question: What about the GI (HCC 2998) of the same compound?
Answer: 1.48 µM

Question: What about the GI (CCRF-CEM) of the same compound?
Answer: 1.04 µM

Question: What about the GI (ACHN) of the same compound?
Answer: 1 µM

Question: And the GI (HOP-92)?
Answer: 1.13 µM

Question: What about the GI (MDA-MB-468) of the same compound?
Answer: 1.56 µM

Question: What about the GI (KM12) of the same compound?
Answer: 2 µM

Question: What about the Activity (HCT-116 [6]) of the same compound?
Answer: Active

Question: And the GI (UACC-257)?
Answer: 1.92 µM

Question: What about the GI (SN12C) of the same compound?
Answer: 2.03 µM

Question: What about the GI (SF-295) of the same compound?
Answer: 1.82 µM

Question: What about the ΔTm (Quadruplex DNA [7]) of the same compound?
Answer: > 20 °C

Question: What about the GI (BT-549) of the same compound?
Answer: 2.24 µM

Question: And the GI (A549)?
Answer: 1.59 µM

Question: And the GI (COLO 205)?
Answer: 1.39 µM

Question: What about the GI (Malme-3M) of the same compound?
Answer: 1.59 µM

Question: And the GI (NCI-H460)?
Answer: 1.08 µM

Question: And the GI (EKVX)?
Answer: 1.6 µM

Question: What about the Activity (Quadruplex DNA [8]) of the same compound?
Answer: Active

Question: And the GI (U-251)?
Answer: 1.55 µM

Question: What about the GI (PC-3) of the same compound?
Answer: 1.34 µM

Question: What does the source list for CCN(CC)CCn1c2ccc(O)cc2c2sc3cc(OC)ccc3c(=O)c21?
Answer: GI (RPMI-8226): 1.95 µM; GI (NCI-H226): 10.4 µM; Activity (Quadruplex DNA [1]): Active; GI (SNB-19): 1.51 µM; GI (MOLT-4): 0.389 µM; GI (OVCAR-3): 2.19 µM; ΔTm (Quadruplex DNA [2]): > 20 °C; GI (LOX IMVI): 1.21 µM; GI (UO-31): 1.9 µM; GI (NCI-H23): 1.56 µM; GI (OVCAR-5): 2.22 µM; GI (MDA-MB-435): 1.64 µM; GI (SK-OV-3): 13.4 µM; GI (UACC-62): 1.89 µM; GI (DU-145): 1.71 µM; GI (786-0): 1.39 µM; GI (HCT-15): 1.2 µM; GI (HOP-62): 6.03 µM; GI (NCI/ADR-RES): 1.23 µM; inhibition [3]: Active; GI (M14): 1.64 µM; GI (HCT-116 [4]): 1.07 µM; ΔTm (Quadruplex DNA [5]): 9.6 °C; GI (MCF7): 1.18 µM; GI (OVCAR-4): 1.81 µM; GI (SK-MEL-28): 1.8 µM; GI (HCC 2998): 1.47 µM; GI (CCRF-CEM): 1.09 µM; GI (ACHN): 1.13 µM; GI (HOP-92): 2.58 µM; GI (MDA-MB-468): 1.54 µM; GI (KM12): 1.84 µM; Activity (HCT-116 [6]): Active; GI (UACC-257): 2.1 µM; GI (SN12C): 5.83 µM; GI (SF-295): 5.35 µM; ΔTm (Quadruplex DNA [7]): > 20 °C; GI (BT-549): 6.08 µM; GI (A549): 1.63 µM; GI (COLO 205): 3.08 µM; GI (Malme-3M): 1.87 µM; GI (NCI-H460): 1.22 µM; GI (EKVX): 1.67 µM; Activity (Quadruplex DNA [8]): Active; GI (U-251): 1.58 µM; GI (PC-3): 1.82 µM
